Our source for the EC50 and Emax values is US10208019B2, “GLP-1 receptor agonists and uses thereof” (Pfizer Inc., priority 2016, dated 2019).

In general, EC50 refers to the concentration that produces a half-maximal response. Broadly, the Emax is the size of the effect at its maximum, as opposed to the concentration needed.

Test [1] addresses human GLP-1R (Homo sapiens, UniProt P43220, G168S). The experiment in a line: CHO GLP-1R Clone H6—Assay 1: HTRF cAMP cell-based functional agonist assay (high GLP-1R density). The settings on record: for EC50: read-out: Assay 1 EC50, CHO GLP-1R Clone H6, cAMP HTRF, geometric mean; for Emax: read-out: Assay 1 Emax (%), CHO GLP-1R Clone H6, relative to saturating concentration of full agonist GLP-1 (1 μM), arithmetic mean. A general note: Time-resolved FRET reads energy transfer from a long-lived donor to a nearby acceptor.

Test [2] addresses human GLP-1R (Homo sapiens (Human), UniProt P43220, L260F). The experiment in a line: CHO GLP-1R Clone C6—Assay 2: HTRF cAMP cell-based functional agonist assay (low GLP-1R density). The following applies: for EC50: CHO GLP-1R Clone C6, cAMP HTRF, geometric mean; for Emax: CHO GLP-1R Clone C6, relative to saturating concentration of full agonist GLP-1 (1 μM), arithmetic mean, read-out: Assay 2 Emax (%).

human GLP-1R (Homo sapiens (Human), UniProt P43220, L260F), sequence (P43220 24-463 L260F): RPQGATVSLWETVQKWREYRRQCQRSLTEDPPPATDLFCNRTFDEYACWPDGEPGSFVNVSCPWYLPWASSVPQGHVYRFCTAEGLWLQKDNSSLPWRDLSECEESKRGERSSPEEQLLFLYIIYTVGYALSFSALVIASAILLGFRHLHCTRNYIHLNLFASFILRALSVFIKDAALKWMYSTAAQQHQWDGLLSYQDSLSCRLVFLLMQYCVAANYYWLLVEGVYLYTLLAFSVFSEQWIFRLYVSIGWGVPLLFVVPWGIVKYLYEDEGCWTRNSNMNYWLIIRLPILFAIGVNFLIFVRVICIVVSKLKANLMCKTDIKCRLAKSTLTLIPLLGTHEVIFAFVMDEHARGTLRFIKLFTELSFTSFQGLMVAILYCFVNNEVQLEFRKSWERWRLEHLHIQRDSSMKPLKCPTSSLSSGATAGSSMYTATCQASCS
human GLP-1R (Homo sapiens, UniProt P43220, G168S), sequence (P43220 24-463 G168S limits assumed): as the sequence (P43220 24-463 L260F) above, with G145S, F237L counted along it

Take `Cn1cncc1Cn1c(CN2CCC(c3cccc(OCc4ccc(C#N)cc4F)n3)CC2)nc2ccc(C(=O)O)nc21` [Example 10A-76]: in test [1], the EC50 came to 2.9 nM and the Emax came to 79%. In test [2], a half-maximal effect (EC50) was put at 51 nM and the Emax was determined as 95%.
Regarding `N#Cc1ccc(COc2cccc(N3CCN(Cc4nc5ccc(C(=O)O)nc5n4C[C@@H]4CCO4)CC3)n2)c(F)c1` [Example 10A-77, 2-[(4-{6-[(4-cyano-2-fluorobenzyl)oxy]pyridin-2-yl}piperazin-1-yl)methyl]-3-[(2S)-oxetan-2-ylmethyl]-3H-imidazo[4,5-b]pyridine-5-carboxylic acid], in test [1], the EC50 came to 0.96 nM and the Emax stood at 100%. Besides, in test [2], the EC50 worked out at 10 nM and the Emax amounted to 120%.
Regarding `N#Cc1ccc(COc2cccc(C3CCN(Cc4nc5ccc(C(=O)O)cc5n4C[C@@H]4CCO4)CC3)n2)cc1` [Example 10A-78, 2-[(4-{6-[(4-cyanobenzyl)oxy]pyridin-2-yl}piperidin-1-yl)methyl]-1-[(2S)-oxetan-2-ylmethyl]-1H-benzimidazole-6-carboxylic acid], in test [1], the EC50 is 1.6 nM and the Emax was found to be 83%. Moreover, in test [2], the half-maximal effective concentration (EC50) was 28 nM and the Emax came out at 88%.
Taken in the same sequence, the figures for `CC1(Cn2c(CN3CCC(c4cccc(OCc5ccc(Cl)cc5F)n4)CC3)nc3ccc(C(=O)O)cc32)CCOC1` (stereo not drawn) [Example 11A-14, 2-[(4-{6-[(4-chloro-2-fluorobenzyl)oxy]pyridin-2-yl}piperidin-1-yl)methyl]-1-[(3-methyltetrahydrofuran-3-yl)methyl]-1H-benzimidazole-6-carboxylic acid] were 8.1 nM, 64%, 230 nM and 77%.
Taken in the same sequence, the figures for `O=C(O)c1ccc2nc(CN3CCC(c4cccc(OCc5ccc(Cl)cc5F)n4)CC3)n(Cc3cn[nH]c3)c2c1` [Example 11A-15, 2-[(4-{6-[(4-chloro-2-fluorobenzyl)oxy]pyridin-2-yl}piperidin-1-yl)methyl]-1-(1H-pyrazol-4-ylmethyl)-1H-benzimidazole-6-carboxylic acid] were 9.4 nM, 69%, 94 nM and 92%.
Taken in the same sequence, the figures for `O=C(O)c1ccc2nc(CN3CCC(c4cccc(OCc5ccc(Cl)cc5F)n4)CC3)n(CC3CCC3)c2c1` [Example 11A-16, 2-[(4-{6-[(4-chloro-2-fluorobenzyl)oxy]pyridin-2-yl}piperidin-1-yl)methyl]-1-(cyclobutylmethyl)-1H-benzimidazole-6-carboxylic acid] were 11 nM, 71%, 410 nM and 75%.
`O=C(O)c1ccc2nc(CN3CCC(c4cccc(OCc5ccc(Cl)cc5F)n4)CC3)n(CCn3cncn3)c2c1` [Example 11A-17, 2-[(4-{6-[(4-chloro-2-fluorobenzyl)oxy]pyridin-2-yl}piperidin-1-yl)methyl]-1-[2-(1H-1,2,4-triazol-1-yl)ethyl]-1H-benzimidazole-6-carboxylic acid]: in test [1], the EC50 came out at 11 nM and the Emax stood at 65%. In test [2], the EC50 came to 380 nM and the Emax turned out to be 96%.
Take `CCOC(C)Cn1c(CN2CCC(c3cccc(OCc4ccc(Cl)cc4F)n3)CC2)nc2ccc(C(=O)O)cc21` (stereo not drawn) [Example 11A-18, 2-[(4-{6-[(4-chloro-2-fluorobenzyl)oxy]pyridin-2-yl}piperidin-1-yl)methyl]-1-(2-ethoxypropyl)-1H-benzimidazole-6-carboxylic acid]: the results for the EC50 in test [1] and in test [2] were 14 nM and 270 nM, respectively. Also, the Emax in test [1] was determined as 80%; in test [2], 92%.
Take `COCCn1cnnc1Cn1c(CN2CCC(c3cccc(OCc4ccc(Cl)cc4F)n3)CC2)nc2ccc(C(=O)O)cc21` [Example 11A-19, 2-[(4-{6-[(4-chloro-2-fluorobenzyl)oxy]pyridin-2-yl}piperidin-1-yl)methyl]-1-{[4-(2-methoxyethyl)-4H-1,2,4-triazol-3-yl]methyl}-1H-benzimidazole-6-carboxylic acid]: the EC50 came to 15 nM in test [1] and 230 nM in test [2]. Besides, the figures for the Emax in test [1] and in test [2] were 83% and 110%, respectively.
As for `O=C(O)c1ccc2nc(CN3CCC(c4cccc(OCc5ccc(Cl)cc5F)n4)CC3)n(CCN3CCOC3=O)c2c1` [Example 11A-20], the EC50 in test [1] amounted to 15 nM; in test [2], 270 nM.
For `Cn1nccc1Cn1c(CN2CCC(c3cccc(OCc4ccc(Cl)cc4F)n3)CC2)nc2ccc(C(=O)O)cc21` [Example 11A-21, 2-[(4-{6-[(4-chloro-2-fluorobenzyl)oxy]pyridin-2-yl}piperidin-1-yl)methyl]-1-[(1-methyl-1H-pyrazol-5-yl)methyl]-1H-benzimidazole-6-carboxylic acid], in test [1], the EC50 came out at 18 nM and the Emax amounted to 82%. Besides, in test [2], the response was half-maximal at 270 nM (EC50) and the Emax was found to be 83%.
Taken in the same sequence, the figures for `COC(C)(C)Cn1c(CN2CCC(c3cccc(OCc4ccc(Cl)cc4F)n3)CC2)nc2ccc(C(=O)O)cc21` [Example 11A-22, 2-[(4-{6-[(4-chloro-2-fluorobenzyl)oxy]pyridin-2-yl}piperidin-1-yl)methyl]-1-(2-methoxy-2-methylpropyl)-1H-benzimidazole-6-carboxylic acid] were 21 nM, 82%, 200 nM and 81%.
Taken in the same sequence, the figures for `O=C(O)c1ccc2nc(CN3CCC(c4cccc(OCc5ccc(Cl)cc5F)n4)CC3)n(Cc3c[nH]nn3)c2c1` [Example 11A-23, 2-[(4-{6-[(4-chloro-2-fluorobenzyl)oxy]pyridin-2-yl}piperidin-1-yl)methyl]-1-(1H-1,2,3-triazol-4-ylmethyl)-1H-benzimidazole-6-carboxylic acid] were 25 nM, 78%, 330 nM and 96%.
Taken in the same sequence, the figures for `O=C(O)c1ccc2nc(CN3CCC(c4cccc(OCc5ccc(Cl)cc5F)n4)CC3)n(Cc3cc[nH]n3)c2c1` [Example 11A-24, 2-[(4-{6-[(4-chloro-2-fluorobenzyl)oxy]pyridin-2-yl}piperidin-1-yl)methyl]-1-(1H-pyrazol-3-ylmethyl)-1H-benzimidazole-6-carboxylic acid] were 28 nM, 80%, 450 nM and 89%.
On to `O=C(O)c1ccc2nc(CN3CCC(c4cccc(OCc5ccc(Cl)cc5F)n4)CC3)n(Cc3nnc[nH]3)c2c1` [Example 11A-25, 2-[(4-{6-[(4-chloro-2-fluorobenzyl)oxy]pyridin-2-yl}piperidin-1-yl)methyl]-1-(4H-1,2,4-triazol-3-ylmethyl)-1H-benzimidazole-6-carboxylic acid], for which, in test [1], the EC50 was 30 nM and the Emax is 77%. For the same molecule, in test [2], the EC50 is 360 nM and the Emax was 89%.
Taken in the same sequence, the figures for `O=C(O)c1ccc2nc(CN3CCC(c4cccc(OCc5ccc(Cl)cc5F)n4)CC3)n(C3CCOC3)c2c1` (stereo not drawn) [Example 11A-26, 2-[(4-{6-[(4-chloro-2-fluorobenzyl)oxy]pyridin-2-yl}piperidin-1-yl)methyl]-1-(tetrahydrofuran-3-yl)-1H-benzimidazole-6-carboxylic acid] were 36 nM, 73%, 1100 nM and 79%.
Turning to `CC(F)(F)Cn1c(CN2CCC(c3cccc(OCc4ccc(Cl)cc4F)n3)CC2)nc2ccc(C(=O)O)cc21` [Example 11A-27, 2-[(4-{6-[(4-chloro-2-fluorobenzyl)oxy]pyridin-2-yl}piperidin-1-yl)methyl]-1-(2,2-difluoropropyl)-1H-benzimidazole-6-carboxylic acid], the concentration for a half-maximal effect (EC50) in test [1] amounted to 44 nM; in test [2] it was 490 nM. The figures for the Emax in test [1] and in test [2] were 72% and 98%, respectively.
Regarding `O=C(O)c1ccc2nc(CN3CCC(c4cccc(OCc5ccc(Cl)cc5F)n4)CC3)n(CCn3cccn3)c2c1` [Example 11A-28, 2-[(4-{6-[(4-chloro-2-fluorobenzyl)oxy]pyridin-2-yl}piperidin-1-yl)methyl]-1-[2-(1H-pyrazol-1-yl)ethyl]-1H-benzimidazole-6-carboxylic acid], in test [1], the EC50 is 54 nM and the Emax is 77%. In addition, in test [2], the EC50 came out at 1200 nM and the Emax turned out to be 82%.
As to `Cc1noc(CCn2c(CN3CCC(c4cccc(OCc5ccc(Cl)cc5F)n4)CC3)nc3ccc(C(=O)O)cc32)n1` [Example 11A-29, 2-[(4-{6-[(4-chloro-2-fluorobenzyl)oxy]pyridin-2-yl}piperidin-1-yl)methyl]-1-[2-(3-methyl-1,2,4-oxadiazol-5-yl)ethyl]-1H-benzim idazole-6-carboxylic acid], in test [1], the EC50 came to 55 nM and the Emax is 71%. In test [2], the EC50 was determined as 1700 nM and the Emax worked out at 99%.
On to `Cc1ccn(CCn2c(CN3CCC(c4cccc(OCc5ccc(Cl)cc5F)n4)CC3)nc3ccc(C(=O)O)cc32)n1` [Example 11A-31, 2-[(4-{6-[(4-chloro-2-fluorobenzyl)oxy]pyridin-2-yl}piperidin-1-yl)methyl]-1-[2-(3-methyl-1H-pyrazol-1-yl)ethyl]-1H-benzimidazole-6-carboxylic acid], for which the EC50 in test [1] was determined as 72 nM; in test [2] it was 1500 nM. Besides, the maximum response (Emax) was determined as 76% in test [1] and 81% in test [2].
